Measurements reported in ChEMBL document CHEMBL3507680, “University of Dundee, Gates Library screen for HepG2 cell viability”.

Test: Human HepG2 cell viability assay in 384 well format
Type: toxicity, cell-based
Parameters: dose 125 nL, time 70.5 hour; concentration not given beside the values
Conditions: HepG2 cells, read-out: Inhibition

Row | Compound | cytotoxicity at 70.5 h [%]
1 | Cc1cc(C)n(CC2CCN(CC(O)COc3ccccc3)CC2)n1 (centres undefined) | -6.54
2 | CCc1nnc2n1CCN(C(=O)C(C)Oc1ccc(C#N)cc1)C2 (centres undefined) | -10.1
3 | CC(C)(C)c1nc(CNc2cc3c(cc2Cl)NC(=O)CO3)no1 | -7.93
4 | CCN(CC)C(=O)CS(=O)(=O)c1cc(OC)c(OC)cc1C | -9.5
5 | COCCNC(=O)N1CCN(c2cc(F)ccc2F)CC1 | -10.1
6 | Cc1nc(NC(=O)C(C)N(C)Cc2ccc3c(c2)OCO3)sc1C (centres undefined) | -5.16
7 | CCS(=O)(=O)N1Cc2ccccc2CC1C(=O)OCc1cc(C)no1 (centres undefined) | -7.63
8 | CCC(C)C(=O)N(C)Cc1cc(F)ccc1N1CCC(OC)CC1 (centres undefined) | -10.5
9 | CC1COCCN1C(=O)Cc1cc(Cl)c2c(c1)OCCO2 (centres undefined) | -12.3
10 | Cc1cc(C2CCCN(Cc3nc(Cc4ccccc4)no3)C2)n[nH]1 (centres undefined) | -10.9
11 | O=C(CCn1ccnc1)N1CCCC(n2cncn2)C1 (centres undefined) | 10.1
12 | O=C(CCCn1cccn1)N1CCCC(n2cncn2)C1 (centres undefined) | 1.52
13 | COc1ccc(OC)c(CNCc2c(C)nc3sc(C)cn23)c1 | 16.5
14 | O=C(c1ccc(CN2CC(n3cccn3)C2)cc1)N1CCCC1 | -0.354
15 | CNC(=O)c1ccc(CN(C)c2ccc(C(F)(F)F)cn2)cc1 | 6.65
16 | Cc1ccccc1C1(C(=O)N2CCOC(C)C2)CCOCC1 (centres undefined) | -5.13
17 | COCCCNC(=O)c1c[nH]c2ccc(OC)cc12 | -1.45
18 | COC(=O)CCNC(=O)c1c[nH]cc1-c1cccc(OC)c1 | 3.36
19 | COC(=O)C(C)CN(Cc1ccccc1)C(=O)CN1CCCNC1=O (centres undefined) | -0.248
20 | COc1c(NS(=O)(=O)c2ccc(F)c(C)c2)c(C)nn1C | 0.334
21 | Cc1cc(NC(=O)CCCn2ccnc2C)nc(C(C)C)n1 | 0.794
22 | CNC(=O)c1cccnc1NCCOc1ccccc1 | -0.952
23 | O=C1CN(C(=O)CSC2CCCc3ccccc32)CCN1 (centres undefined) | 5.33
24 | CC(C)n1nc2c(cc1=O)CN(c1nc3ccccc3s1)CC2 | 3.31

Row | Compound | cytotoxicity at 70.5 h [%]
25 | c1ccc2nc(N3CCCCC3)c(NCc3nnc4n3CCC4)nc2c1 | -8.39
26 | Fc1ccc(C2(NCc3ccccc3)CCOCC2)cc1 | -3.51
27 | Cc1cc(CN(C)Cc2csc(-c3ccc(C(C)C)cc3)n2)no1 | 14.4
28 | Cc1cccc(C)c1NC(=O)CNC(C)Cc1ccsc1 (centres undefined) | 32.9
29 | CCn1cc(CNc2ccc(Br)c(OC)c2)cn1 | 4.22
30 | N#Cc1ncn(CCS(=O)(=O)c2ccccc2)n1 | -16.8
31 | CNC(=O)CCS(=O)(=O)Cc1nnnn1-c1ccccc1 | -3.85
32 | CCn1cnnc1CNC(=O)NCC(C(C)C)N1CCOCC1 (centres undefined) | -13
33 | CCn1cnnc1CNC(=O)NCC(C(C)C)N1CCC(C)CC1 (centres undefined) | 10.3
34 | Cc1nc(CSc2ccc(C(F)(F)F)cn2)no1 | -9.49
35 | Cc1cc(NC(=O)NCc2ccc(S(=O)(=O)N3CCCC3)s2)no1 | -7.64
36 | CCn1cnnc1CNC(=O)NCC(C)(CC)N1CCOCC1 (centres undefined) | -9.65
37 | CCn1cnnc1CNC(=O)N(C)Cc1ccccc1OC | -4
38 | CCS(=O)(=O)Cc1nnnn1-c1ccccc1 | -8.76
39 | CCOCC(=O)Nc1ccc(N2CCSCC2)cc1C | -7.62
40 | Cc1c(CS(C)(=O)=O)cccc1NC(=O)CC1CCCC1 | -7.53
41 | Cc1cc(C(=O)NCC2CCC3(CC2)OCCO3)[nH]n1 | 1.56
42 | C1CCC(CNC2CCCN(Cc3noc(C4CC4)n3)C2)CC1 (centres undefined) | -15.3
43 | O=C(NCc1ccccc1Cn1cncn1)N1CCCC1 | -12.2
44 | CN(C)C(=O)CCS(=O)(=O)Cc1coc(-c2ccc(F)cc2)n1 | -16.4
45 | CNC(=O)CS(=O)(=O)Cc1coc(-c2cccc(F)c2)n1 | -8.64
46 | Cc1nnc(CN2CCC(c3nc4cc(Cl)ccc4o3)CC2)n1C | -18.9
47 | Clc1ccc2oc(C3CCN(Cc4nc(C5CC5)no4)CC3)nc2c1 | -16.3
48 | CCc1nnc(CN2CCC(c3nc4cc(Cl)ccc4o3)CC2)o1 | -11.3

Row | Compound | cytotoxicity at 70.5 h [%]
49 | CN(CC(=O)N1CCN(c2cnccn2)CC1)c1ccc(Cl)cn1 | -13.1
50 | COc1ccc(NC(=O)COc2nn(C)c3nc(C)cc(C)c23)cn1 | -18.4
51 | Cc1cc(NC(=O)CN2CCc3c(nc(C(C)C)n3C)C2)on1 | -14.3
52 | CS(=O)(=O)CCCSc1cccc(C#N)c1 | -13
53 | COc1cc(C(=O)NS(=O)(=O)c2cncc(Br)c2)cc(Cl)c1OC | -15.8
54 | CCN(CC)C(=O)CNC(=O)N1CCC(c2ccccc2)C1 (centres undefined) | -6.54
55 | CC(CNC(=O)c1cc(Cl)ccc1F)N1CCCC1 (centres undefined) | -13.5
56 | CNC(=O)N1CCCCC1CCNS(C)(=O)=O (centres undefined) | -13.3
57 | C1CC(NCC2CC2)CN(Cc2noc(C3CC3)n2)C1 (centres undefined) | -15.4
58 | CN(Cc1ccc(Cl)s1)C(=O)c1ccccc1OCC(N)=O | -14.1
59 | CS(=O)(=O)CCNC1CCCN(Cc2noc(C3CC3)n2)C1 (centres undefined) | -13.7
60 | Cc1cc(NC(=O)NCCc2ccc3c(c2)OCCO3)n(C)n1 | -4.79
61 | CN1CCN(C(CNC(=O)c2ccc(Cl)cc2F)c2cccs2)CC1 (centres undefined) | 42.7
62 | CC(Cn1cccn1)NC(=O)Nc1ccc(N2CCCC2)nc1 (centres undefined) | 10.1
63 | CN(CC(N)=O)Cc1ccc(F)cc1Cl | -5.08
64 | CCc1nnc2n1CCN(Cc1csc(-c3ccccc3F)n1)C2 | -7.77
65 | Cc1cc(N(C)C)nc(N2CCN(Cc3nccn3C)CC2)n1 | -5.76
66 | CCOc1cc(C)nc(N2CCN(Cc3nccn3CC)CC2)n1 | 7.28
67 | CC(C)c1nnc2n1CCN(Cc1csc(-c3cnn(C)c3)n1)C2 | -2.14
68 | Cc1csc(NC(=O)CN2CCc3nn(C)c(=O)cc3C2)n1 | -8.05
69 | Cn1ccnc1-c1cccc(NC(=O)NCC(=O)NC(C)(C)C)c1 | 4.86
70 | Cn1nc2c(cc1=O)CN(CC(=O)Nc1nncs1)CC2 | -1.1
71 | CC(C)NC(=O)CCNC(=O)Nc1cccc(-c2nccn2C)c1 | -2.81
72 | CCn1nc2c(cc1=O)CN(CC(=O)Nc1cc(C)no1)CC2 | -0.888

Row | Compound | cytotoxicity at 70.5 h [%]
73 | CC(C)c1cc(NC(=O)CN2CCc3nn(C)c(=O)cc3C2)on1 | -4.73
74 | Cn1cc(-c2csc(N3CCSCC3)n2)cn1 | -3.33
75 | Fc1cccc(-n2cccn2)c1NCc1nnc(C2CC2)o1 | -2.54
76 | CC(=O)NCCc1ccc(S(=O)(=O)N(C)C(C)C(C)(C)C)s1 (centres undefined) | -9.01
77 | CCc1nnc2n1CCN(Cc1csc(-c3ccccc3)n1)C2 | -12.9
78 | CC(C)C(O)C1(CNC(=O)Nc2ccc(CN3CCOC3=O)cc2)CC1 (centres undefined) | -11.3
79 | CCn1ccnc1CN1CCN(c2nc(C)cc(OC)n2)CC1 | -9.98
80 | COc1cccnc1NC(=O)COc1ccc(F)cc1F | -6.39
81 | NC(=O)C1CCN(Cc2cc3c(cc2Br)OCCO3)C1 (centres undefined) | -1.46
82 | Cc1nc(C(C)(C)NC(=O)Nc2ccc(C#N)cc2)no1 | -4.52
83 | COCCN(Cc1ccc(F)cc1Cl)C(=O)c1cnn(C)c1C | 7.76
84 | COCCN(Cc1ccc(F)cc1Cl)C(=O)c1c(C)noc1C | 2.4
85 | CCOC(=O)NCCNC(=O)c1cc(Br)cn1C(C)C | 9.21
86 | Cc1ccc(C(=O)N2CCOC(c3nc(C(C)(C)C)n[nH]3)C2)c(=O)[nH]1 (centres undefined) | 0.0481
87 | Cc1cc(C(=O)Nc2ccnc(OC3CCOC3)c2)c(C)o1 (centres undefined) | -1.8
88 | O=C(Nc1ccnc(OC2CCOC2)c1)c1ccccc1Cl (centres undefined) | -4.06
89 | CCOCCN1CCN(Cc2nnc(C3CC3)o2)CC1 | -2.06
90 | CCOCCN1CCN(Cc2nc(C)no2)CC1CC (centres undefined) | -2.4
91 | OCCOc1cc(F)ccc1NCc1nc(-c2cccs2)no1 | -10.9
92 | Cc1ccccc1-c1noc(CNc2ccc(F)cc2OCCO)n1 | 1.21
93 | Cc1ccc2cc(C(=O)N3CCN(C(=O)c4ccoc4)CC3)[nH]c2c1 | 8.19
94 | Cc1occc1CN(C)C(=O)Nc1ccc(=O)n(C)c1 | -7.93
95 | CC(NCc1ccccc1O)c1ccc(-n2ccnc2)cc1 (centres undefined) | 26.4
96 | Cc1nnc2n1CC(CNc1cnc3ccccc3n1)CC2 (centres undefined) | -9.52

Row | Compound | cytotoxicity at 70.5 h [%]
97 | CC(C)c1nnc2n1CC(CNc1cnc3ccccc3n1)CC2 (centres undefined) | -9.13
98 | OCCOc1cc(F)ccc1NCc1nc(-c2ccoc2)no1 | 8.3
99 | CCc1nnc2n1CC(CNc1cnc3ccccc3n1)CC2 (centres undefined) | 1.47
100 | Cc1n[nH]cc1CNC1CCN(c2cccc(C(F)(F)F)c2)CC1 | 2.2
101 | Cn1[nH]c(C2CC2)c(-c2ccc3c(c2)OCO3)c1=N | 8.3
102 | Cc1cnn(CC(=O)NCC2(O)CCCc3ccccc32)c1 (centres undefined) | 2.95
103 | CCc1nc(Cn2c(=O)n(C)c3ccccc32)no1 | -6.86
104 | OCc1cc2ccccc2nc1NCC1(O)CCC1 | -8.77
105 | CCNC(=O)N1CCC(NC(=O)NCCc2ccc(C)cc2C)C1 (centres undefined) | -3.65
106 | OCc1cc2ccccc2nc1NCC1CCN(CC(F)(F)F)C1 (centres undefined) | 27.3
107 | CCNC(=O)N1CCC(NC(=O)NCCc2cc(F)cc(F)c2)C1 (centres undefined) | 1.55
108 | CN(Cc1ccncc1)C(=O)NCc1cn(-c2ccccc2)nn1 | -8.45
109 | CCOCCN1CCN(Cc2nnc(-c3occc3C)o2)CC1 | 9.82
110 | CCOCCN1CCN(Cc2nnc(-c3ccco3)o2)CC1 | -5.68
111 | Cc1cc(CSC2CCCN(c3cnn(C)c3)C2=O)no1 (centres undefined) | -3.62
112 | CC(C)(C)CC(=O)NCC(=O)Nc1ccn(Cc2ccccc2)n1 | -11
113 | NC(=O)NC(=O)CNC1(c2ccc(Cl)cc2)CCCC1 | -17.2
114 | Cn1nc(Br)c2c(NCCS(N)(=O)=O)ncnc21 | 28.8
115 | Cn1nc(Br)c2c(NCCCS(N)(=O)=O)ncnc21 | -22.7
116 | COCCCNC(=O)CN1CCSC(c2ccccc2)C1 (centres undefined) | 3.9
117 | CC(C)(C)CC(=O)NCC(=O)Nc1ccn(CCCn2ccnc2)n1 | -2.26
118 | O=C(c1ccc(N2CCCC2)nc1)N1CCCC(c2nccs2)C1 (centres undefined) | -20.6
119 | Cn1nc(C2CCCC2)c(-c2ccc3c(c2)OCO3)c1N | -8.03
